The term IC50 denotes the point on the concentration scale where inhibition reaches its midpoint.

T1 sequence (Q15910 whole entry): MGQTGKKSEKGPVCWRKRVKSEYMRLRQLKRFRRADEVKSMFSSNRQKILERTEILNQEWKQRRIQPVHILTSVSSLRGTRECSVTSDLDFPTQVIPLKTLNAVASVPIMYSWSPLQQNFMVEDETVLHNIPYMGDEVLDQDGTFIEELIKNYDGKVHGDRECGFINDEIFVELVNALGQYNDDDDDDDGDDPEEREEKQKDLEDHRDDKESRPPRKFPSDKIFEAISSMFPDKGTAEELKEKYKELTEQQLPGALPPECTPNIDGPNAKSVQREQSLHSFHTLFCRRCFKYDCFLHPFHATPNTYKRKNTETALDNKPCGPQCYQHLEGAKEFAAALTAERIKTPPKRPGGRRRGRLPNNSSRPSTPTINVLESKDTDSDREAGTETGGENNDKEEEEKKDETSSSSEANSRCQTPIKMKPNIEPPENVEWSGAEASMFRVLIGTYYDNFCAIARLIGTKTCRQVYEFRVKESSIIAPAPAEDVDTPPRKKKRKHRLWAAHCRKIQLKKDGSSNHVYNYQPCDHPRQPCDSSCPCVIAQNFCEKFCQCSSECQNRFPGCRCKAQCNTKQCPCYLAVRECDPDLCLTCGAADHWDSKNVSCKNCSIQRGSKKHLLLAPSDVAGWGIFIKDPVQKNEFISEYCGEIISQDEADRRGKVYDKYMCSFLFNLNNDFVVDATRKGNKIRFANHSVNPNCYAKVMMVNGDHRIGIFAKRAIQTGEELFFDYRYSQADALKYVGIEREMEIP
T1 sequence (O75530 whole entry partner): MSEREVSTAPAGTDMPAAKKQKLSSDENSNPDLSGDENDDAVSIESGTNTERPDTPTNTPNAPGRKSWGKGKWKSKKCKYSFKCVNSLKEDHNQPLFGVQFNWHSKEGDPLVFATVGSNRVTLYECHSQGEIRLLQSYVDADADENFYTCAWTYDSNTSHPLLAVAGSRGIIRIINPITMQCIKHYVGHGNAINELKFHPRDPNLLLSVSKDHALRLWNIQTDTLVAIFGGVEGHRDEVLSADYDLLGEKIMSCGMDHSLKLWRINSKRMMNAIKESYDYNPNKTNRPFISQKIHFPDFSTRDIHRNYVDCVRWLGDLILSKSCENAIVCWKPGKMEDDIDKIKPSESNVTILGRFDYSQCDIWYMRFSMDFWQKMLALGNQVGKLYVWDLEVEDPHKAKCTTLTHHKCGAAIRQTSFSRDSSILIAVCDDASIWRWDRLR
T1 sequence (Q15022 whole entry partner): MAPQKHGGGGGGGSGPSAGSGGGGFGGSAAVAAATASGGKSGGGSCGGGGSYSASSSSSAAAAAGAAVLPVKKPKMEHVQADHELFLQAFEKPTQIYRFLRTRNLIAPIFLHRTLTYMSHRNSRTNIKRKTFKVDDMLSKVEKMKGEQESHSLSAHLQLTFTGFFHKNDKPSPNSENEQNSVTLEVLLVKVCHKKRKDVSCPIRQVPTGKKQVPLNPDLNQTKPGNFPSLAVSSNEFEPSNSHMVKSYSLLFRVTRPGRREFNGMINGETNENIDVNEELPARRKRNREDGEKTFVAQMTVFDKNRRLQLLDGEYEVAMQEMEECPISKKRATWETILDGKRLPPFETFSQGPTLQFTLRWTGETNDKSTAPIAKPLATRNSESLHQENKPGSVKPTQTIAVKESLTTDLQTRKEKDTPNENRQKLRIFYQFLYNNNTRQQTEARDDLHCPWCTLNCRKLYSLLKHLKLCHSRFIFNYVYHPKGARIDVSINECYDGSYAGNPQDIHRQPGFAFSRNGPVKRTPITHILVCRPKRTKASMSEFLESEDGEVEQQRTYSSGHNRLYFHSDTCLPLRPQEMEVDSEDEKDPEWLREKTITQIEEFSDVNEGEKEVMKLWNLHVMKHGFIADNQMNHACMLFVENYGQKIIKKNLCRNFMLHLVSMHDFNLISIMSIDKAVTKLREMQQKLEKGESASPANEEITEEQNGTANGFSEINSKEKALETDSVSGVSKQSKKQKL
T1 sequence (Q09028 whole entry partner): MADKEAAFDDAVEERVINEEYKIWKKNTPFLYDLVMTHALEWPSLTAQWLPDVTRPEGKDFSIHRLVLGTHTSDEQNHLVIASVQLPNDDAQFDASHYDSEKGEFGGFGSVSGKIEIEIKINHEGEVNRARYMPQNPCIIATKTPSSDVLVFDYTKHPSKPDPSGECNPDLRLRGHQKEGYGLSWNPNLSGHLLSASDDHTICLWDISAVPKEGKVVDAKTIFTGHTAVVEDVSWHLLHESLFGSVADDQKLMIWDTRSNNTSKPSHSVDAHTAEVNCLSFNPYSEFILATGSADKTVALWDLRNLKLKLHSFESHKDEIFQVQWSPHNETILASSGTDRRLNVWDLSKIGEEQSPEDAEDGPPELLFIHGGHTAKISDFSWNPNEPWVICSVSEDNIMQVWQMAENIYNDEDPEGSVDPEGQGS
T1 sequence (Q6ZN18 whole entry partner): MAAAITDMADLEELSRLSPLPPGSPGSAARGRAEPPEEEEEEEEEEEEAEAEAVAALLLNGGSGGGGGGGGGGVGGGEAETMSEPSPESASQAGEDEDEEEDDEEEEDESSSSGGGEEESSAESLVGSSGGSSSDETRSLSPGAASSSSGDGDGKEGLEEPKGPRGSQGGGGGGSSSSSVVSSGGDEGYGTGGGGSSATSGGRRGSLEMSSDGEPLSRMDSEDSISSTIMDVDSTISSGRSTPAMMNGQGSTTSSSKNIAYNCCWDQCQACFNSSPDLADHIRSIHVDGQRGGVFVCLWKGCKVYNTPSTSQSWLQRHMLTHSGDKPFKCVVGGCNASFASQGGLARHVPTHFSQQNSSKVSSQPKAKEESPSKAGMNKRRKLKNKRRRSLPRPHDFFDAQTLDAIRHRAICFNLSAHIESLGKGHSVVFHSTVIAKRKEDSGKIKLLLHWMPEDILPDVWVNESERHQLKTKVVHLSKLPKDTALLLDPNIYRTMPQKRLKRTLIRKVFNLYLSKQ

The first assay concerns the target T1, PRC2 containing wt EZH2 (Homo sapiens, UniProt Q15910).
T1 construct: made in house
Briefly: EZH2 pep BSA Brij 4.0 LowE (IC50): 3H-SAM incorporation into biotinylated H3 peptide. Conditions: 20 pM PRC2 wt EZH2, 0.9 μM 3H-SAM, biotinylated H3 peptide substrate, 2 μM H3K27me3 activating peptide; read-out: EZH2 pep BSA Brij 4.0 LowE (IC50). The assay is classed as biochemical. The method, then: EZH2 Pep BSA Brij 4.0 LowE (IC50):
Compound potencies were assessed through incorporation of ^3H-SAM into a biotinylated H3 peptide. Specifically, PRC2 containing wt EZH2 (20 pM), (pentameric complexes prepared in-house) was pre-incubated with ^3H-SAM (0.9 μM), 2 μM H3K27me3 activating peptide (H2N-RKQLATKAAR(Kme3)SAPATGGVKKP-amide) and compounds (as 10 point duplicate dose response titrations in DMSO, final assay 0.8% DMSO (v/v)) for 120 min in 50 mM Tris (pH 8.5), 1 mM DTT, 0.07 mM Brij-35, 0.1% BSA, and 0.8% DMSO in a total volume of 12.5 μl. Reaction was initiated with biotinylated H3 substrate peptide (H2N-RKQLATKAAR(Kme1)SAPATGGVKKP-NTPEGBiot) as a 2 μM stock in 12.5 μl of buffer and allowed to react at room temperature for 5 h. Quenching was accomplished by addition of 20 μl of STOP solution (50 mM Tris (pH 8.5), 200 mM EDTA, 2 mM SAH). 35 μl of the quenched solution was transferred to Streptavidin Flashplates, incubated overnight, washed, and read in a TopCount Reader (Perkin Elmer). IC50s were calculated relative to fully active and no enzyme control wells using non-linear least square four parameter fits.
For the molecule `COc1cc(C)[nH]c(=O)c1CNC(=O)c1c(C)n(C(C)C2CCNC(c3cccc(F)c3)C2)c2ccccc12` (stereo not drawn) [Compound 51], the IC50 was less than 100 nM.

Consider `Cc1cc(C)c(CNC(=O)c2c(C)n(C(C)C3CCNC(c4cccc(F)c4)C3)c3ccccc23)c(=O)[nH]1` (stereo not drawn) [Compound 52], for which the concentration for half-maximal inhibition (IC50) is less than 100 nM. Same read-out and setting: as for `Cc1cc(C)c(CNC(=O)c2c(C)n(C(C)C3CCNC(c4cccc(F)c4)C3)c3ccccc23)c(=O)[nH]1` (stereo not drawn) [Compound 53], the figure is less than 100 nM.

Take `COc1cc(C)[nH]c(=O)c1CNC(=O)c1c(C)n(C(C)C2CCN(C)C(c3cccc(F)c3)C2)c2ccccc12` (stereo not drawn) [Compound 55]: the 50% inhibitory concentration (IC50) was less than 100 nM. As to `Cc1cc(C)c(CNC(=O)c2c(C)n(C(C)C3CCN(C)C(c4cccc(F)c4)C3)c3ccccc23)c(=O)[nH]1` (stereo not drawn) [Compound 56], the 50% inhibitory concentration (IC50) was less than 100 nM.

On to `COc1cc(C)[nH]c(=O)c1CNC(=O)c1c(C)n(C(C)C2CCN(C)C(c3cccc(F)c3)C2)c2ccccc12` (stereo not drawn) [Compound 57], for which the half-inhibitory concentration (IC50) is less than 100 nM. On the same count and under the same terms, next, `Cc1cc(C)c(CNC(=O)c2c(C)n(C(C)C3CCN(C)C(c4cccc(F)c4)C3)c3ccccc23)c(=O)[nH]1` (stereo not drawn) [Compound 61]: less than 100 nM. `COc1cc(C)[nH]c(=O)c1CNC(=O)c1c(C)n(C(C)C2CCNC(c3cccc(F)c3)C2)c2ccccc12` (stereo not drawn) [Compound 65]: the IC50 was less than 100 nM.

For the molecule `COc1cc(C)[nH]c(=O)c1CNC(=O)c1c(C)n(C(C)C2CCN(C(C)=O)C(CC(F)(F)F)C2)c2ccccc12` (stereo not drawn) [Compound 75], the IC50 is less than 100 nM. Still for that read-out and setting: next, `COc1cc(C)[nH]c(=O)c1CNC(=O)c1c(C)n(C(C)C2CCNC(c3cccc(C(F)(F)F)c3)C2)c2ccccc12` (stereo not drawn) [Compound 76]: less than 100 nM; `COc1cc(C)[nH]c(=O)c1CNC(=O)c1c(C)n(C(C)C2CCNC(c3cccc(C(F)(F)F)c3)C2)c2ccccc12` (stereo not drawn) [Compound 77]: less than 100 nM; `COc1cc(C)[nH]c(=O)c1CNC(=O)c1c(C)n(C(C)C2CCN(C(C)=O)C(C)C2)c2ccccc12` (stereo not drawn) [Compound 78]: less than 100 nM.

Still in this assay, the particulars now being: EZH2 pep BSA Brij 4.0 LowE (IC50), 20 pM PRC2 wt EZH2, 0.9 μM 3H-SAM, biotinylated H3 peptide substrate, 2 μM H3K27me3 activating peptide.
On to `Cc1cc(C)c(CNC(=O)c2c(C)n(C(C)C3CCN(CC(C)(F)F)C(C)C3)c3ccccc23)c(=O)[nH]1` (stereo not drawn) [Compound 48], for which the 50% inhibitory concentration (IC50) fell in the range of 100 to 1000 nM. The molecule `Cc1cc(C)c(CNC(=O)c2c(C)n(C(C)C3CCN(CC(C)(F)F)C(C)C3)c3ccccc23)c(=O)[nH]1` (stereo not drawn) [Compound 49] came in with an IC50 of 100 to 1000 nM. On the same count and under the same terms, as for `COc1cc(C)[nH]c(=O)c1CNC(=O)c1c(C)n(C(C)C2CCNC(c3ccccc3F)C2)c2ccccc12` (stereo not drawn) [Compound 50], the figure is less than 100 nM; as for `CCC1CC(C(C)n2c(C)c(C(=O)NCc3c(OC)cc(C)[nH]c3=O)c3ccccc32)CCN1CC(F)F` (stereo not drawn) [Compound 54], less than 100 nM; as for `Cc1cc(C)c(CNC(=O)c2c(C)n(C(C)C3CCN(CC(C)(F)F)C(C)C3)c3ccccc23)c(=O)[nH]1` (stereo not drawn) [Compound 58], less than 100 nM. The same measure, in the same setting: next, `COc1cc(C)[nH]c(=O)c1CNC(=O)c1c(C)n(C(C)C2CCN(CC(C)(F)F)C(C)C2)c2ccccc12` (stereo not drawn) [Compound 64]: less than 100 nM; `CCC1CC(C(C)n2c(C)c(C(=O)NCc3c(C)cc(C)[nH]c3=O)c3ccccc32)CCN1CC(F)F` (stereo not drawn) [Compound 67]: less than 100 nM. The molecule `Cc1cc(C)c(CNC(=O)c2c(C)n(C(C)C3CCN(CC(C)(F)F)C(C)C3)c3ccccc23)c(=O)[nH]1` (stereo not drawn) [Compound 74] came in with an IC50 of less than 100 nM.

The same assay, now with this note: read-out: EZH2 pep BSA Brij 4.0 LowE (IC50); 20 pM PRC2 wt EZH2, 0.9 μM 3H-SAM, biotinylated H3 peptide substrate, 2 μM H3K27me3 activating peptide.
As for `CCC1CC(C(C)n2c(C)c(C(=O)NCc3c(OC)cc(C)[nH]c3=O)c3ccccc32)CCN1CC(F)F` (stereo not drawn) [Compound 59], the IC50 is less than 100 nM. Same read-out and setting: as for `CCC1CC(C(C)n2c(C)c(C(=O)NCc3c(OC)cc(C)[nH]c3=O)c3ccccc32)CCN1CC(F)F` (stereo not drawn) [Compound 60], the figure is less than 100 nM. Still for that read-out and setting: next, `CCC1CC(C(C)n2c(C)c(C(=O)NCc3c(OC)cc(C)[nH]c3=O)c3ccccc32)CCN1CC(F)F` (stereo not drawn) [Compound 62]: less than 100 nM; `CCC1CC(C(C)n2c(C)c(C(=O)NCc3c(OC)cc(C)[nH]c3=O)c3ccccc32)CCN1CC(F)F` (stereo not drawn) [Compound 63]: less than 100 nM.

The record behind these values is US20180037568A1, “MODULATORS OF METHYL MODIFYING ENZYMES, COMPOSITIONS AND USES THEREOF” (Constellation Pharmaceuticals, Inc., priority 2015, published 2018).
